Patent publication US20140045776A1, “METHOD FOR INCREASING THE SHELF LIFE OF FOOD PRODUCTS” (GALACTIC S.A., priority 2011, published 2014)

Test system: aerobic bacteria
Assay: Shelf life of minced meat stored at 4° C. (total number of aerobic bacteria)
Format: cell-based
Experimental: The usual formulation of a minced meat was prepared with the following ingredients:
Preservatives were added to this basic formulation, the maximum percentage being 4% (of a fermentate having a main-salt concentration of 40%) compared with the whole of the meat-based food product.
The minced meats are prepared according to the following procedure:
a) Preparing of the meat: the meat and fat are cut into small pieces and minced using a mincer having a 4 mm mincing grille. The meat, fat and other ingredients are then disposed by means of a mixer of the Kenwood type having a type K stirring blade. Operate the stirring for 30 seconds (minimum power).
b) Sampling: the product thus obtained is divided into 100 g samples and placed in plastic bags.
c) Storage: the products obtained are packaged in stretch film and stored at a temperature of 4° C.±1° C. for 10 days.
Twice a week, the pH, the activity of the water (Aw) and total number of aerobic bacteria were evaluated on the samples.
The shelf life of the product prepared without a preservative (reference) was compared with that of the product containing standard potassium lactate—Galoflow PL (Galactic SA) and that of the product containing the fermentate obtained by sugar fermentation by Bacillus coagulans spp. […] The results are set out in graph 1. […]

## CC(O)C(=O)[O-].[K+] (centres unmarked) [potassium lactate]
Example 2, minced meat, each at a concentration not impacting on the taste (0.05% potassium acetate, 2% potassium lactate), graph 2
  preservative effect on the meat matrix: preservative effect superior to that of potassium acetate
Example 3, minced meat, potassium lactate with main-salt concentration 60% at various concentrations, 4° C., graph 3
  effect on shelf life of the product: increases the shelf life of the product
